Laboratory results published in PubChem BioAssay AID2060498 (Molecular Pharmacology Branch, DTP, NCI, 2025).

Tested on: 171881-019-R-J1-PDC tumor spheroids, viability
Test: Anticancer human tumor 171881-019-R-J1-PDC patient-derived invasive breast carcinoma cell line growth inhibition [GQUAD]
Settings: spheroids with HUVEC and MSC; for IC50: curve of first compound; for viability, T/C: stronger effect = lower value
In short: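 Tumor cells were grown as complex spheroids with HUVEC endothelial cells and mesenchymal stem cells as stroma. G-quadruplex stabilizers were combined with targeted agents over half-log dilutions from near the clinical Cmax, or from 10 microM.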

[1] = second compound 0.0316 µM, first compound 0.0316 µM
[2] = second compound 0.0316 µM, first compound 0.1 µM
[3] = second compound 0.0316 µM, first compound 0.316 µM
[4] = second compound 0.0316 µM, first compound 1 µM
[5] = second compound 0.0316 µM, first compound 3.16 µM
[6] = second compound 0.0316 µM, first compound 10 µM
[7] = second compound 0.1 µM, first compound 0.0316 µM
[8] = second compound 0.1 µM, first compound 0.1 µM
[9] = second compound 0.1 µM, first compound 0.316 µM
[10] = second compound 0.1 µM, first compound 1 µM
[11] = second compound 0.1 µM, first compound 3.16 µM
[12] = second compound 0.1 µM, first compound 10 µM
[13] = second compound 0.316 µM, first compound 0.0316 µM
[14] = second compound 0.316 µM, first compound 0.1 µM
[15] = second compound 0.316 µM, first compound 0.316 µM
[16] = second compound 0.316 µM, first compound 1 µM
[17] = second compound 0.316 µM, first compound 3.16 µM
[18] = second compound 0.316 µM, first compound 10 µM
[19] = second compound 1 µM, first compound 0.0316 µM
[20] = second compound 1 µM, first compound 0.1 µM
[21] = second compound 1 µM, first compound 0.316 µM
[22] = second compound 1 µM, first compound 1 µM
[23] = second compound 1 µM, first compound 3.16 µM
[24] = second compound 1 µM, first compound 10 µM
[25] = second compound 3.16 µM, first compound 0.0316 µM
[26] = second compound 3.16 µM, first compound 0.1 µM
[27] = second compound 3.16 µM, first compound 0.316 µM
[28] = second compound 3.16 µM, first compound 1 µM
[29] = second compound 3.16 µM, first compound 3.16 µM
[30] = second compound 3.16 µM, first compound 10 µM
[31] = second compound 10 µM, first compound 0.0316 µM
[32] = second compound 10 µM, first compound 0.1 µM
[33] = second compound 10 µM, first compound 0.316 µM
[34] = second compound 10 µM, first compound 1 µM
[35] = second compound 10 µM, first compound 3.16 µM
[36] = second compound 10 µM, first compound 10 µM
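Also: spheroids exposed to compounds for 7 days.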
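For viability, T/C in this document: 100% = DMSO vehicle control viability.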

Structure (SMILES): C=CC(=O)N1CCN(c2nc(=O)n(-c3c(C)ccnc3C(C)C)c3nc(-c4c(O)cccc4F)c(F)cc23)C(C)C1 (centres undefined) + CN(C)c1ccc(Nc2c3ccc(NC(=O)CCN4CCCC4)cc3nc3cc(NC(=O)CCN4CCCC4)ccc23)cc1
- IC50 (second compound 0.0316 µM): > 10000 nM
- IC50 (second compound 0.1 µM): > 10000 nM
- IC50 (second compound 0.316 µM): 7360 nM
- IC50 (second compound 1 µM): < 31.6 nM
- IC50 (second compound 3.16 µM): < 31.6 nM
- IC50 (second compound 10 µM): < 31.6 nM
- viability, T/C [1]: 98.3%
- viability, T/C [2]: 104%
- viability, T/C [3]: 102%
- viability, T/C [4]: 117%
- viability, T/C [5]: 99.3%
- viability, T/C [6]: 53.5%
- viability, T/C [7]: 94.8%
- viability, T/C [8]: 115%
- viability, T/C [9]: 111%
- viability, T/C [10]: 119%
- viability, T/C [11]: 96.9%
- viability, T/C [12]: 59.3%
- viability, T/C [13]: 79.3%
- viability, T/C [14]: 75.8%
- viability, T/C [15]: 69.8%
- viability, T/C [16]: 70%
- viability, T/C [17]: 70.6%
- viability, T/C [18]: 42.9%
- viability, T/C [19]: 19%
- viability, T/C [20]: 16%
- viability, T/C [21]: 18.6%
- viability, T/C [22]: 17.1%
- viability, T/C [23]: 15.3%
- viability, T/C [24]: 10.2%
- viability, T/C [25]: 1.61%
- viability, T/C [26]: 1.65%
- viability, T/C [27]: 1.29%
- viability, T/C [28]: 1.13%
- viability, T/C [29]: 2.03%
- viability, T/C [30]: 1.73%
- viability, T/C [31]: 0.27%
- viability, T/C [32]: 0.5%
- viability, T/C [33]: 0.42%
- viability, T/C [34]: 0.9%
- viability, T/C [35]: 0.45%
- viability, T/C [36]: 0.56%

Structure (SMILES): CC1COCCN1c1cc(-c2ccnn2C)c2ccnc(-c3ccn[nH]3)c2n1 (centres undefined) + CN(C)c1ccc(Nc2c3ccc(NC(=O)CCN4CCCC4)cc3nc3cc(NC(=O)CCN4CCCC4)ccc23)cc1
- IC50 (second compound 0.0316 µM): 65.2 nM
- IC50 (second compound 0.1 µM): 51.9 nM
- IC50 (second compound 0.316 µM): 40.8 nM
- IC50 (second compound 1 µM): < 31.6 nM
- IC50 (second compound 3.16 µM): < 31.6 nM
- IC50 (second compound 10 µM): < 31.6 nM
- viability, T/C [1]: 76.9%
- viability, T/C [2]: 34.1%
- viability, T/C [3]: 12.4%
- viability, T/C [4]: 5.31%
- viability, T/C [5]: 1.79%
- viability, T/C [6]: 1.42%
- viability, T/C [7]: 64.8%
- viability, T/C [8]: 30.4%
- viability, T/C [9]: 11.6%
- viability, T/C [10]: 5.34%
- viability, T/C [11]: 1.93%
- viability, T/C [12]: 1.63%
- viability, T/C [13]: 55.2%
- viability, T/C [14]: 31.6%
- viability, T/C [15]: 10.3%
- viability, T/C [16]: 3.25%
- viability, T/C [17]: 1.4%
- viability, T/C [18]: 1.07%
- viability, T/C [19]: 20.7%
- viability, T/C [20]: 8.28%
- viability, T/C [21]: 4.88%
- viability, T/C [22]: 1.45%
- viability, T/C [23]: 0.66%
- viability, T/C [24]: 0.48%
- viability, T/C [25]: 1.59%
- viability, T/C [26]: 1.01%
- viability, T/C [27]: 0.89%
- viability, T/C [28]: 0.34%
- viability, T/C [29]: 0.71%
- viability, T/C [30]: 0.14%
- viability, T/C [31]: 0.16%
- viability, T/C [32]: 0.3%
- viability, T/C [33]: 0.33%
- viability, T/C [34]: 0.32%
- viability, T/C [35]: 0.43%
- viability, T/C [36]: 0.14%
